The values below come from article PMC5155426, “Organic Redox Species in Aqueous Flow Batteries: Redox Potentials, Chemical Stability and Solubility” (Scientific Reports, 2016).

The nature of data set [1]: Cyclic voltammetry: formal redox potential, peak current ratio, electrochemical reversibility. The format is physicochemical. To be noted: for formal redox potential E0': midpoint of CV peak potentials; for pH dependence (slope) of E0': pH 0 to pH 13. As for the experimental part: The investigated compounds were used as-purchased and without any purification. […] For each series of CVs, a freshly polished electrode was used. The CVs for soluble compounds in 1 mM concentration were recorded in a glass beaker with a customized lid in nitrogen purged solutions of three different pHs, namely pH 0 (1 M H2SO4), pH 7 (0.5 M phosphate buffer) and pH 13 (1 M NaOH). The pH of the NaOH solution is taken as 13 to account for carbonization of the solution with exposure to air. A background CV was recorded before each CV experiment to exclude background contaminations. The CVs of insoluble compounds in 1 M H2SO4, or 0.5 M phosphate buffer were recorded as follows: 6 mL of the supporting electrolyte was mixed with approximately 4 mL of acetone, and then a small amount of the quinone was added so that its concentration was around 1 mM.
Each CV was analyzed in terms of peak potentials and peak currents. Peak currents were determined by subtracting a polynomial fit of the background from the recorded current as exemplified in Supplementary, S1. A plot of the absolute values of the peak currents to the square root of the scan rate was constructed and, when reasonable, a linear fit included to evaluate the electrochemical (Nernstian) reversibility of the electrochemical reaction. The peak current Ip for reversible reactions are given by equation (1).
Where F is the Faraday constant, R the gas constant, T the temperature, n the number of electron transferred, A the area of the electrode, DOthe diffusion coefficient and CO^*the bulk concentration of the analyte and v the scan rate. The peak current ratio is expected to be close to one for reversible species. The formal redox potential (E^0’), which is the adjusted form of the standard redox potential, where effects of the medium is taken into account, is reported here as the midpoint potential between the two peak potentials in the CV[24]. All half-cell potentials in this work refer to the normal hydrogen electrode (VNHE).

The nature of data set [2]: Aqueous solubility estimation (OECD test #105) in 1 M supporting electrolytes. How it is done: After each addition the test tube was ultrasonicated and/or shaken vigorously using a Vortex Generator for at least 10 minutes at room temperature. Then the tube was inspected visually for undissolved sample and the addition of supporting electrolyte solution continued until the sample seemed just dissolved. The volumes just before and after full dissolution are used for calculating the solubility interval (Supplementary, S4 and S5) and the solubility is estimated as the average between the two.

[3] abbreviates: 1 M H2SO4 supporting electrolyte prepared from MilliQ water, aqueous buffer, thermodynamic from solid, Solubility, 1 M H2SO4, room temperature, interval just after / before full dissolution.
Where [4] appears, read: 1 M KCl supporting electrolyte prepared from MilliQ water, saline or isotonic, thermodynamic from solid, Solubility, 1 M KCl, room temperature.
The mark [5] stands for this setting: pH 0 (1 M H2SO4), about 1 mM, acetone added for insoluble compounds.
[6] abbreviates: 1 M KOH supporting electrolyte prepared from MilliQ water, aqueous buffer, thermodynamic from solid, Solubility, 1 M KOH, room temperature.

Values after ≈ are worked out from the molar mass of the structure shown. Values joined by “and” are separate entries in the source; they are usually repeats but may differ in a detail not shown here. Equal entries are not always repeated.

`O=C1c2cccc(O)c2C(=O)c2cccc(O)c21` [AQDH(1,5), 1,5-dihydroxy-9,10-anthraquinone]: the Electrochemical reversibility result in data set [1] (pH 13) is given as “Quasireversible”. The Peak current ratio in data set [1] (pH 13) is 0.79(9). In addition, the solubility in data set [2] (setting [3]) and in data set [2] (setting [4]) was below 10 mM in each case.

As to `Nc1c(S(=O)(=O)[O-])cc(Br)c2c1C(=O)c1ccccc1C2=O.[Na+]` [AQS(2)NBr, 1-amino-4-bromo-9,10-anthraquinone-2-sulfonate sodium], in data set [1] (setting [5]), the “formal redox potential E0'” value was 0.14(4) VNHE. Also, the Electrochemical reversibility result in data set [1] (pH not specified) is on record as “Quasireversible”.

Regarding `O=C1c2ccc(O)c(O)c2C(=O)c2c(O)ccc(O)c21` [AQTH(1,2), 1,2,5,8-tetrahydroxy-9,10-anthraquinone], the “formal redox potential E0'” value is given as -0.084(5) VNHE in data set [1] (setting [5]), -0.414(3) VNHE in data set [1] (pH 7 (0.5 M phosphate buffer)) and -0.69(1) VNHE in data set [1] (pH 13 (1 M NaOH)). Also, in data set [1] (pH 13), the Electrochemical reversibility entry is listed as “Reversible”. The Peak current ratio in data set [1] (pH 13) is 0.96(6). In addition, the solubility in data set [2] (setting [3]) and in data set [2] (setting [4]) was below 10 mM each time.

For the compound `O=C1c2c(O)ccc(O)c2C(=O)c2c(O)ccc(O)c21` [AQTH(1,4), 1,4,5,8-tetrahydroxy-9,10-anthraquinone], the “E0' more negative compared to AQDH(1,4)” value in data set [1] (alkaline) is on record as “approximately 100 mV”. Also, the “formal redox potential E0'” value in data set [1] (setting [5]) is reported as 0.200(4) VNHE. The Electrochemical reversibility entry in data set [1] (pH 13) is on record as “Reversible”. Also, the Peak current ratio in data set [1] (pH 13) was 1.2(1). Moreover, the solubility in data set [2] (setting [3]) and in data set [2] (setting [4]) was below 10 mM each time. Further, the “solubility compared to AQDH(1,4)” value in data set [2] (alkaline) is reported as “only half the solubility”.

With `Cc1cc(O)c2c(c1)C(=O)c1cc(O)cc(O)c1C2=O` [AQTrHM, 1,3,8-trihydroxy-6-methylanthracene-9,10-dione], the values for the Peak current ratio in data set [1] (pH 0), in data set [1] (pH 7) and in data set [1] (pH 13) were 0.15(4), 0.19(6) and 0.2(2), respectively. Further, the “formal redox potential E0'” value in data set [1] (setting [5]) is -0.04(1) VNHE; in data set [1] (pH 7 (0.5 M phosphate buffer)), -0.386(2) VNHE; in data set [1] (pH 13 (1 M NaOH)), -0.63(1) VNHE. For the same compound, the Electrochemical reversibility result in data set [1] (pH not specified) is recorded as “Reversible”. Further, the solubility in data set [2] (setting [3]) and in data set [2] (setting [4]) was below 10 mM each time.

Turning to `O=C1C=C(O)C(=O)C=C1O` [BQ(1,4)DH, 2,5-dihydroxy-1,4-benzoquinone], the results for the Peak current ratio in data set [1] (pH 0), in data set [1] (pH 7) and in data set [1] (pH 13) were 0.87(4), 1.1(2) and 0.8(1), respectively. Besides, in data set [1] (pH 0), the “reduction of E0' compared to the parent BQ compound” value stood at 300 mV. Besides, the “formal redox potential E0'” value in data set [1] (setting [5]) was 0.382(4) VNHE and 0.38 VNHE. The “pH dependence (slope) of E0'” value in data set [1] is listed as around −90 mV/pH unit. The Electrochemical reversibility entry in data set [1] (pH not specified) was “Quasireversible”. For the same compound, the solubility in data set [2] (setting [3]) and in data set [2] (setting [4]) was below 10 mM in each case.

As to `O=C1C(O)=C(Cl)C(=O)C(O)=C1Cl` [BQ(1,4)DHDCl, 2,5-dichloro-3,6-1,4-benzoquinone], the “change of E0' from acidic (pH 0) to alkaline (pH 13)” value in data set [1] (13 pH units) came out at 0.99 V. Moreover, the Electrochemical reversibility result in data set [1] (pH 0) was “Reversible”; in data set [1] (pH 7), “Quasireversble”; in data set [1] (pH 13) it was “Quasireversble”. The Peak current ratio in data set [1] (pH 0) is reported as 1.3(1); in data set [1] (pH 7) it was 1.2(4); in data set [1] (pH 13) it was 0.8(2). The “formal redox potential E0'” value in data set [1] (setting [5]) is on record as 0.394(1) VNHE. In addition, in data set [1], the “pH dependence (slope) of E0'” value was −76 mV/pH unit. Besides, the solubility in data set [2] (setting [3]) was below 10 mM; in data set [2] (setting [4]), 10 mM (≈ 2090 µg/mL); in data set [2] (setting [6]) it was below 10 mM. Besides, the “aqueous solubility, qualitative” value in data set [2] (water / supporting electrolytes as worded) is “insoluble in water”.

`O=C1C(O)=C(O)C(=O)C(O)=C1O` [BQ(1,4)TH, Tetrahydroxy-1,4-benzoquinone]: the “formal redox potential E0'” value in data set [1] (setting [5]) is given as 0.28 VNHE. Besides, the Electrochemical reversibility entry in data set [1] (pH 6.2) is reported as “Quasireversible”; in data set [1] (pH 13) it was “Quasireversible”; in data set [1] (pH not specified) it was “completely loses its electrochemical activity”. For the same compound, the solubility in data set [2] (setting [3]), in data set [2] (setting [4]) and in data set [2] (setting [6]) was below 10 mM in each case.

Regarding `Oc1ccccc1O` [HQ(1,2), Ortho hydroquinone], the values for the Electrochemical reversibility entry in data set [1] (pH 0), in data set [1] (pH 7) and in data set [1] (pH 13) were “Quasireversible”, “Quasireversible” and “Irreversible”, respectively.

`O=S(=O)(O)c1cc(O)c(O)c(S(=O)(=O)O)c1` [HQ(1,2)DS, 4,5-dihydroxy-1,3-benzenedisulfonate disodium monohydrate]: the reduction/oxidation peak ratio entry in data set [1] (all pH values) is reported as “significantly low”. For the same compound, the Peak current ratio in data set [1] (pH 0) is 0.4(1). In addition, the figures for the “formal redox potential E0'” value in data set [1] (setting [5]) and in data set [1] (pH 7 (0.5 M phosphate buffer)) were 0.86(3) VNHE and 0.7 VNHE, respectively. Further, the Electrochemical reversibility result in data set [1] (pH not specified) was “Quasireversible”. Besides, the “increase of E0' relative to ortho-BQ” value in data set [1] (two sulfonate groups) was found to be 50 mV.

Regarding `Oc1ccc(O)cc1` [HQ(1,4), Para hydroquinone], the Electrochemical reversibility entry in data set [1] (pH 0) and in data set [1] (pH 7) was “Quasireversible” throughout. The Peak current ratio in data set [1] (pH 0) is on record as 2.3(1); in data set [1] (pH 7), 1.2(3). Also, the “formal redox potential E0'” value in data set [1] (setting [5]) was 0.669(5) VNHE; in data set [1] (pH 7 (0.5 M phosphate buffer)) it was 0.433(7) VNHE; in data set [1] (pH 13 (1 M NaOH)), 0.11(1) VNHE.

For the compound `O=S(=O)([O-])c1cc(O)ccc1O.[K+]` [HQ(1,4)S, 2,5-dihydroxybenzenesulfonate potassium], the figures for the “formal redox potential E0'” value in data set [1] (setting [5]), in data set [1] (pH 7 (0.5 M phosphate buffer)) and in data set [1] (pH 13 (1 M NaOH)) were 0.664(8) VNHE, 0.471(4) VNHE and -0.07(1) VNHE, respectively. Also, the Electrochemical reversibility result in data set [1] (pH not specified) was “Quasireversible”.

Take `Oc1c(Cl)c(Cl)c(O)c(Cl)c1Cl` [HQ(1,4)TCl, Tetrachloro hydroquinone]: the Peak current ratio in data set [1] (pH 0) is 0.72(5); in data set [1] (pH 7), 1.1(2). Besides, the entries for the “formal redox potential E0'” value in data set [1] (setting [5]), in data set [1] (pH 7 (0.5 M phosphate buffer)) and in data set [1] (pH 13 (1 M NaOH)) were 0.70(1) VNHE, 0.277(1) VNHE and 0.08(1) VNHE, respectively. The Electrochemical reversibility entry in data set [1] (pH not specified) is on record as “Quasireversible”. For the same compound, the “aqueous solubility, qualitative” value in data set [2] was “insoluble in water”. Moreover, the solubility in data set [2] was below 10 mM; in data set [2] (aqueous buffer, thermodynamic from solid, Solubility) it was below 10 mM; in data set [2] (saline or isotonic, thermodynamic from solid, Solubility), below 10 mM.

Regarding `Oc1c(F)c(F)c(O)c(F)c1F` [HQ(1,4)TF, 1,2,4,5-tetrafluoro-3,6-dihydroxybenzene], the Peak current ratio is 0.5(1) in data set [1] (pH 0), 0.21(7) in data set [1] (pH 7) and 0.2(1) in data set [1] (pH 13). For the same compound, the “formal redox potential E0'” value is given as 0.707(4) VNHE in data set [1] (setting [5]), 0.23(7) VNHE in data set [1] (pH 7 (0.5 M phosphate buffer)) and -0.05(6) VNHE in data set [1] (pH 13 (1 M NaOH)). Further, the Electrochemical reversibility entry in data set [1] (pH not specified) is reported as “Quasireversible”. Besides, in data set [2] (setting [4]), the solubility was 10 mM (≈ 1820 µg/mL).

Take `O=C1C=CC(=O)C=C1` [para-BQ]: the “pH dependence (slope) of E0'” value in data set [1] was −45 mV/pH unit. The “formal redox potential E0'” value in data set [1] (pH 13 (1 M NaOH)) was 0.11 VNHE.
